Test results published in patent US20240182453A1, “NOVEL SUBSTITUTED PYRAZINE-CARBOXAMIDE DERIVATIVES” (Boehringer Ingelheim International GmbH, priority 2022, published 2024).

Molecular target: human metabotropic Glutamate 4 receptor (mGluR4) (Homo sapiens (Human), UniProt Q14833)
Assay: Assay A: in vitro testing of mGluR4 potency (glutamate-induced cAMP lowering, HTRF cAMP)
Type: cell-based
Conditions: HEK293 cells overexpressing human mGluR4; 10 uM L-glutamic acid, 1 uM forskolin; compounds of the present invention
Outline: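 HEK293 cells overexpressing human mGluR4 treated 30 min at room temperature with compound plus 10 uM L-glutamate, 1 uM forskolin, 0.5 mM IBMX, 0.1% BSA, 1% DMSO. cAMP read by HTRF (665/615 nm ratio), normalized to glutamate (100%) and no-glutamate (0%) controls as percent of control.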

human metabotropic Glutamate 4 receptor (mGluR4), sequence (Q14833 33-912): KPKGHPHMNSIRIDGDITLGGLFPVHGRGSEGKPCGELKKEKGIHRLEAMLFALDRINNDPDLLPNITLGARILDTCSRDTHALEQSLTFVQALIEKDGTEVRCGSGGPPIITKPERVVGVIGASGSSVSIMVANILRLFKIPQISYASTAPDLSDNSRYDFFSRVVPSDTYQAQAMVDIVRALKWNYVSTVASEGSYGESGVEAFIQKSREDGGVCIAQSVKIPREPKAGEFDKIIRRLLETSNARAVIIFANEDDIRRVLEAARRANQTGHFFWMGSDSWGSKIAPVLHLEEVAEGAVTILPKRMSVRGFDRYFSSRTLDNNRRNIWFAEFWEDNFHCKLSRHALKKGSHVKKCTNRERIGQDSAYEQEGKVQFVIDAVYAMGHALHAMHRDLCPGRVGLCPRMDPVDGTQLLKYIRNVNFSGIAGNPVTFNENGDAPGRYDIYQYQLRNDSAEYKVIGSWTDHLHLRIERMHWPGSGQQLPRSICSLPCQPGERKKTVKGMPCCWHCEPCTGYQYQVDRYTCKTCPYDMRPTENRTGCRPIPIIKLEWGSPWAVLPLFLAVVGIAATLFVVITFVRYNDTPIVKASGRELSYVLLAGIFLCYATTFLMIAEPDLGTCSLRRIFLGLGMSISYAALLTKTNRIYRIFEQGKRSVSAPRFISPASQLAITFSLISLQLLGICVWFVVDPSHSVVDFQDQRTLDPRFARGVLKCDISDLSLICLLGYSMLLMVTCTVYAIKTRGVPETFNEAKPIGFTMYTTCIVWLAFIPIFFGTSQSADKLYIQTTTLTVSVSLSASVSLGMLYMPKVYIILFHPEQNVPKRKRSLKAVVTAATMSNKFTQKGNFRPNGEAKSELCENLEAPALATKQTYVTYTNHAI

Row | SMILES | IC50
1 | CO[C@H](C)[C@H](NC(=O)c1cnc(C)cn1)c1nc2c(C)c(Br)ccc2n1C [Example 88, N-[(1R,2R)-1-(5-bromo-1,4-dimethyl-1H-1,3-benzodiazol-2-yl)-2-methoxypropyl]-5-methylpyrazine-2-carboxamide] | 0.003 µM
2 | COCCn1c([C@@H](NC(=O)c2cnc(C)cn2)[C@H]2CCCO2)nc2cc(OC(F)(F)F)ccc21 [Example 89, N-[(R)-[1-(2-methoxyethyl)-5-(trifluoromethoxy)-1H-1,3-benzodiazol-2-yl][(2R)-oxolan-2-yl]methyl]-5-methylpyrazine-2-carboxamide] | 0.01 µM
3 | COCCn1c(C(NC(=O)c2cnc(C)cn2)C2CCCO2)nc2cc(OC(F)(F)F)ccc21 (centres unmarked) [Example 89-2] | 0.004 µM
4 | COCCn1c([C@@H](NC(=O)c2cnc(C(F)F)cn2)[C@@H]2CCOC2)nc2cc(C(F)(F)F)ccc21 [Example 90, 5-(difluoromethyl)-N-[(S)-[1-(2-methoxyethyl)-5-(trifluoromethyl)-1H-1,3-benzodiazol-2-yl][(3S)-oxolan-3-yl]methyl]pyrazine-2-carboxamide] | 0.006 µM
5 | COCCn1c(C(NC(=O)c2cnc(C(F)F)cn2)C2CCOC2)nc2cc(C(F)(F)F)ccc21 (centres unmarked) [Example 90-3] | 0.013 µM
6 | COCCn1c([C@@H](NC(=O)c2cnc(C)cn2)[C@@H]2CCOC2)nc2cc(Cl)ccc21 [Example 91, N-[(S)-[5-chloro-1-(2-methoxyethyl)-1H-1,3-benzodiazol-2-yl][(3S)-oxolan-3-yl]methyl]-5-methylpyrazine-2-carboxamide] | 0.011 µM
7 | Cc1cnc(C(=O)N[C@@H](CC2CC2)c2nc3cc(Cl)ccc3n2C2CC2)cn1 [Example 92, N-[(1S)-1-(5-chloro-1-cyclopropyl-1H-1,3-benzodiazol-2-yl)-2-cyclopropylethyl]-5-methylpyrazine-2-carboxamide] | 0.018 µM
8 | Cc1cnc(C(=O)N[C@H](c2nc3cc(C(F)(F)F)ccc3n2C)C2(O)CCC2)cn1 [Example 93, N-[(R)-(1-hydroxycyclobutyl)[1-methyl-5-(trifluoromethyl)-1H-1,3-benzodiazol-2-yl]methyl]-5-methylpyrazine-2-carboxamide] | 0.009 µM
9 | Cn1c([C@H](CC2CC2)NC(=O)c2cnc(C(F)F)cn2)nc2cc(F)c(F)cc21 [Example 94, N-[(1S)-2-cyclopropyl-1-(5,6-difluoro-1-methyl-1H-1,3-benzodiazol-2-yl)ethyl]-5-(difluoromethyl)pyrazine-2-carboxamide] | 0.016 µM
10 | Cc1cnc(C(=O)N[C@@H](CC2CC2)c2nc3cc(F)ccc3n2CCOC(F)F)cn1 [Example 95, N-[(1S)-2-cyclopropyl-1-{1-[2-(difluoromethoxy)ethyl]-5-fluoro-1H-1,3-benzodiazol-2-yl}ethyl]-5-methylpyrazine-2-carboxamide] | 0.013 µM
11 | Cc1cnc(C(=O)N[C@H](c2nc3cc(C)c(F)cc3n2C)C2CC2)cn1 [Example 96, N-[(S)-cyclopropyl (6-fluoro-1,5-dimethyl-1H-1,3-benzodiazol-2-yl)methyl]-5-methylpyrazine-2-carboxamide] | 0.015 µM
12 | CCn1c([C@@H](NC(=O)c2cnc(C)cn2)[C@@H]2CCOC2)nc2cc(OC(F)(F)F)ccc21 [Example 97, N-[(S)-[1-ethyl-5-(trifluoromethyoxy)-1H-1,3-benzodiazol-2-yl][(3S)-oxolan-3-yl]methyl]-5-methylpyrazine-2-carboxamide] | 0.02 µM
13 | CCn1c([C@@H](NC(=O)c2cnc(C)cn2)C(C)(C)O)nc2cc(OC(F)(F)F)ccc21 [Example 98, N-[(1R)-1-[1-ethyl-5-(trifluoromethoxy)-1H-1,3-benzodiazol-2-yl]-2-hydroxy-2-methylpropyl]-5-methylpyrazine-2-carboxamide] | 0.01 µM
14 | O=C(N[C@@H](CC1CC1)c1nc2cc(F)ccc2n1CCOC(F)F)c1cnc(C(F)F)cn1 [Example 99, N-[(1S)-2-cyclopropyl-1-{1-[2-(difluoromethoxy)ethyl]-5-fluoro-1H-1,3-benzodiazol-2-yl}ethyl]-5-(difluoromethyl)pyrazine-2-carboxamide] | 0.009 µM
15 | Cc1cnc(C(=O)N[C@H](c2nc3cc(Cl)c(F)cc3n2C)C2CC2)cn1 [Example 100, N-[(S)-(5-chloro-6-fluoro-1-methyl-1H-1,3-benzodiazol-2-yl)(cyclopropyl)methyl]-5-methylpyrazine-2-carboxamide] | 0.019 µM
16 | Cc1cnc(C(=O)N[C@H](c2nc3cc(Cl)ccc3n2C2CC2)C2CC2)cn1 [Example 101, N-[(S)-(5-chloro-1-cyclopropyl-1H-1,3-benzodiazol-2-yl)(cyclopropyl)methyl]-5-methylpyrazine-2-carboxamide] | 0.009 µM

Row | SMILES | IC50
17 | COCCn1c([C@@H](NC(=O)c2cnc(C(F)F)cn2)[C@H]2CCOC2)nc2cc(C(F)(F)F)ccc21 [Example 102, 5-(difluoromethyl)-N-[(S)-[1-(2-methoxyethyl)-5-(trifluoromethyl)-1H-1,3-benzodiazol-2-yl][(3R)-oxolan-3-yl]methyl]pyrazine-2-carboxamide] | 0.013 µM
18 | COCCn1c([C@@H](NC(=O)c2cnc(C)cn2)[C@H]2CCCOC2)nc2cc(C(F)(F)F)ccc21 [Example 103, N-[(S)-[1-(2-methoxyethyl)-5-(trifluoromethyl)-1H-1,3-benzodiazol-2-yl][(3R)-oxan-3-yl]methyl]-5-methylpyrazine-2-carboxamide] | 0.008 µM
19 | CCn1c([C@@H](NC(=O)c2cnc(C)cn2)C(C)(C)O)nc2cc(C(F)(F)F)ccc21 [Example 104, N-[(1R)-1-[1-ethyl-5-(trifluoromethyl)-1H-1,3-benzodiazol-2-yl]-2-hydroxy-2-methylpropyl]-5-methylpyrazine-2-carboxamide] | 0.017 µM
20 | Cc1cnc(C(=O)N[C@@H](CC2CC2)c2nc3cc(OC(F)(F)F)ccc3n2C)cn1 [Example 105, N-[(1S)-2-cyclopropyl-1-[1-methyl-5-(trifluoromethoxy)-1H-1,3-benzodiazol-2-yl]ethyl]-5-methylpyrazine-2-carboxamide] | 0.008 µM
21 | Cn1c([C@H](CC2CC2)NC(=O)c2cnc(C(F)F)cn2)nc2cc(Cl)ccc21 [Example 106, N-[(1S)-1-(5-chloro-1-methyl-1H-1,3-benzodiazol-2-yl)-2-cyclopropylethyl]-5-(difluoromethyl)pyrazine-2-carboxamide] | 0.011 µM
22 | Cc1cnc(C(=O)N[C@H](c2nc3c(Cl)c(F)ccc3n2C)C2CC2)cn1 [Example 107, N-[(S)-(4-chloro-5-fluoro-1-methyl-1H-1,3-benzodiazol-2-yl)(cyclopropyl)methyl]-5-methylpyrazine-2-carboxamide] | 0.013 µM
23 | O=C(N[C@@H](CC1CC1)c1nc2cc(Cl)ccc2n1CCOC(F)F)c1cnc(C(F)F)cn1 [Example 108, N-[(1S)-1-{5-chloro-1-[2-(difluoromethoxy)ethyl]-1H-1,3-benzodiazol-2-yl}-2-cyclopropylethyl]-5-(difluoromethyl)pyrazine-2-carboxamide] | 0.006 µM
24 | CCc1c(Br)ccc2c1nc([C@@H](NC(=O)c1cnc(C)cn1)C(C)(C)O)n2C [Example 109, N-[(1R)-1-(5-bromo-4-ethyl-1-methyl-1H-1,3-benzodiazol-2-yl)-2-hydroxy-2-methylpropyl]-5-methylpyrazine-2-carboxamide] | 0.006 µM
25 | Cc1cnc(C(=O)N[C@H](c2nc3cc(F)c(Br)cc3n2C)C2CC2)cn1 [Example 110, N-[(S)-(6-bromo-5-fluoro-1-methyl-1H-1,3-benzodiazol-2-yl)(cyclopropyl)methyl]-5-methylpyrazine-2-carboxamide] | 0.014 µM
26 | O=C(N[C@@H](CC1CC1)c1nc2cc(F)c(F)cc2n1CCOC(F)F)c1cnc(C(F)F)cn1 [Example 111, N-[(1S)-2-cyclopropyl-1-{1-[2(difluoromethoxy)ethyl]-5,6-difluoro-1H-1,3-benzodiazol-2-yl}ethyl]-5-(difluoromethyl)pyrazine-2-carboxamide] | 0.01 µM
27 | COc1c(Cl)ccc2c1nc([C@@H](NC(=O)c1cnc(C)cn1)C1CC1)n2C [Example 112, N-[(S)-(5-chloro-4-methoxy-1-methyl-1H-1,3-benzodiazol-2-yl)(cyclopropyl)methyl]-5-methylpyrazine-2-carboxamide] | 0.015 µM
28 | Cn1c([C@@H](NC(=O)c2cnc(C(F)F)cn2)[C@H]2CCCO2)nc2cc(OC(F)(F)F)ccc21 [Example 113, 5-(difluoromethyl)-N-[(R)-[1-methyl-5-(trifluoromethoxy)-1H-1,3-benzodiazol-2-yl][(2R)-oxolan-2-yl]methyl]pyrazine-2-carboxamide] | 0.017 µM
29 | Cn1c(C(NC(=O)c2cnc(C(F)F)cn2)C2CCCO2)nc2cc(OC(F)(F)F)ccc21 (centres unmarked) [Example 113-1, 5-(difluoromethyl)-N-{[1-methyl-5-(trifluoromethoxy)-1H-1,3-benzodiazol-2-yl](oxolan-2-yl)methyl}pyrazine-2-carboxamide] | 0.045 µM
30 | O=C(N[C@@H](CC1CC1)c1nc2cc(F)ccc2n1C1CC1)c1cnc(C(F)F)cn1 [Example 114, N-[(1S)-2-cyclopropyl-1-(1-cyclopropyl-5-fluoro-1H-1,3-benzodiazol-2-yl)ethyl]-5-(difluoromethyl)pyrazine-2-carboxamide] | 0.015 µM
31 | Cc1cnc(C(=O)N[C@H](c2nc3cc(OC(F)(F)F)ccc3n2C2CC2)C2CC2)cn1 [Example 115, N-[(S)-cyclopropyl[1-cyclopropyl-5-(trifluoromethoxy)-1H-1,3-benzodiazol-2-yl]methyl]-5-methylpyrazine-2-carboxamide] | 0.009 µM
32 | Cc1cnc(C(=O)N[C@H](c2nc3cc(C(F)(F)F)ccc3n2C2CC2)C2CC2)cn1 [Example 116, N-[(S)-cyclopropyl[1-cyclopropyl-5-(trifluoromethyl)-1H-1,3-benzodiazol-2-yl]methyl]-5-methylpyrazine-2-carboxamide] | 0.013 µM
